Like-named read-outs stand apart in the source and are kept apart here.
Legend:
intracellular MRSA = assay type: cell-based, Staphylococcus aureus; conditions: for %GFP+ rep 1 / %GFP+ rep 2 / %GFP+ rep 3: PKIS compound screen raw data; for %GFP+ rep 1 / %GFP+ rep 2 / %GFP+ rep 3 / z-scoreMRSA+ mean / z-scoreMRSA+ rep 1 / z-scoreMRSA+ rep 2 / z-scoreMRSA+ rep 3: MRSA-infected HeLa cells; for %GFP+ rep 1 / z-scoreMRSA+ rep 1: replicate 1; for %GFP+ rep 2 / z-scoreMRSA+ rep 2: replicate 2; for %GFP+ rep 3 / z-scoreMRSA+ rep 3: replicate 3; for z-scoreMRSA+ mean / z-scoreMRSA+ rep 1 / z-scoreMRSA+ rep 2 / z-scoreMRSA+ rep 3 / hit / effect: PKIS compound screen; for z-scoreMRSA+ mean: mean of 3 replicates; for hit: Yes/No call (effect without cell death); for effect: Yes/No call on z-scoreMRSA+
Experimental: (§1) The cells were resuspended in cell culture medium without antibiotics, seeded with 10,000 cells/well into Costar flat-bottom 96-well plates (Corning, Amsterdam, the Netherlands), and were incubated overnight at 37°C/5% CO2. The next day, the bacteria were centrifuged at ≥1800 g for 15 min and resuspended in cold PBS + 5 mM ethylenediaminetetraacetic acid (EDTA). The number of CFUs present in the bacterial suspension was estimated from the optical density at 600 nm (OD600) by assuming 8x10^8 CFUs to be present in a bacterial suspension with OD600 = 1, based on prior titrations. The bacterial suspension was diluted in cell culture medium without antibiotics and added to the cells. Accuracy of the multiplicity of infection (MOI) was validated by plating serial dilutions of the MRSA inoculums on Difco TS agar plates (BD Biosciences). The calculated mean MOI throughout all experiments was 6.8 ± 4.6 (mean ± SD). Infected cells were centrifuged for 3 min at 150 g and incubated for 1 hour at 37°C/5% CO2. Next, the cells were incubated with fresh cell culture medium supplemented with 30 µg/ml gentamicin sulphate (Lonza BioWhittaker, Basel, Switzerland) for 15 min at 37°C/5% CO2 to kill residual extracellular bacteria. Infected cells were incubated overnight at 37°C/5% CO2 in cell culture medium in the presence of kinase inhibitors and 5 µg/ml gentamicin sulphate-containing medium to prevent the growth of extracellular bacteria. The solvent of the compounds, DMSO, was used at equal % v/v as a negative control. For the screen, each compound was tested in triplicate, on separate cell culture plates, resulting in triplicate values for each kinase inhibitor.
(§2) HeLa cells were harvested by trypsinization and fixed with 1% paraformaldehyde. Samples were measured on a FACSLyric with HTS extension (BD Biosciences). Flow cytometry data were analysed using FlowJo version 10 (TreeStar, Ashland, OR, USA). HeLa cells positive for GFP were gated to calculate the percentage of MRSA-infected cells. The cell count was used as surrogate readout of cell viability.
To identify potential “hit” compounds, the flow cytometry data were used to calculate standard z-scores using z = (x-μ)/σ – zneg, where x is total event count or the percent of GFP-positive cells from a single well, μ is the mean from wells of the plate, σ is the standard deviation of the plate and zneg is the mean z-score of the negative control of the plate (i.e., DMSO) ([Korbee et al., 2018]). To minimize the possibility that the presence of extreme values on a plate affected the z-scores, raw values that deviated two-fold from the negative controls were excluded when calculating plate means and standard deviations as used in the aforementioned formula. Compounds were considered a “hit” when z-scoreMRSA+ ≤ -2 and z-scoreHeLa ≥ -3 for cell count. In cases where compounds were screened twice, the average values were used to select hit compounds.

HeLa cells = assay: Compound screen by flow cytometry: HeLa cell count as surrogate readout of cell viability (z-scoreHeLa); assay type: cell-based, human
Experimental: as §1, §2
To minimize the possibility that the presence of extreme values on a plate affected the z-scores, raw values that deviated two-fold from the negative controls were excluded when calculating plate means and standard deviations as used in the aforementioned formula. Compounds were considered a “hit” when z-scoreMRSA+ ≤ -2 and z-scoreHeLa ≥ -3 for cell count. In cases where compounds were screened twice, the average values were used to select hit compounds.

Compound | %GFP+ rep 1 (intracellular MRSA) | %GFP+ rep 2 (intracellular MRSA) | %GFP+ rep 3 (intracellular MRSA) | z-scoreMRSA+ mean (intracellular MRSA) | z-scoreMRSA+ rep 1 (intracellular MRSA) | z-scoreMRSA+ rep 2 (intracellular MRSA) | z-scoreMRSA+ rep 3 (intracellular MRSA) | hit (intracellular MRSA) | effect (intracellular MRSA) | further results
COc1cc2c(Nc3cccc(NC(=O)c4ccccc4)c3)ncnc2cc1OCCCN1CCOCC1 [GSK223810A] | 19.8% | 21.2% | 22.6% | 0.38 | 0.27 | 0.49 | 0.37 | No | No | cell count rep 1 (HeLa cells; PKIS compound screen raw data, HeLa cell count, replicate 1): 28720; cell count rep 2 (HeLa cells; PKIS compound screen raw data, HeLa cell count, replicate 2): 24881; cell count rep 3 (HeLa cells; PKIS compound screen raw data, HeLa cell count, replicate 3): 20680; z-scoreHeLa mean (HeLa cells; PKIS compound screen, HeLa cell count, mean of 3 replicates): 0.00813; z-scoreHeLa rep 1 (HeLa cells; PKIS compound screen, HeLa cell count, replicate 1): -0.25; z-scoreHeLa rep 2 (HeLa cells; PKIS compound screen, HeLa cell count, replicate 2): -0.07; z-scoreHeLa rep 3 (HeLa cells; PKIS compound screen, HeLa cell count, replicate 3): 0.34; cell death (HeLa cells; PKIS compound screen, Yes/No call on z-scoreHeLa): No
Fc1ccc(-c2ncn(C3CCNCC3)c2-c2ccnc(Oc3cccc(F)c3)n2)cc1 [SB-251505] | 15.0% | 15.3% | 16.6% | -0.95 | -0.91 | -0.97 | -0.97 | No | No | 
Fc1ccc(-c2ncn(C3CCNCC3)c2-c2ccnc(Oc3cccc(C(F)(F)F)c3)n2)cc1 [SB-253226] | 14.0% | 15.8% | 16.0% | -1.07 | -1.22 | -0.82 | -1.15 | No | No | 
Fc1ccc(-c2ncn(C3CCNCC3)c2-c2ccnc(Oc3ccc(Cl)cc3)n2)cc1 [SB-278539] | 13.4% | 15.5% | 16.2% | -1.14 | -1.41 | -0.91 | -1.09 | No | No | 
Cc1cc(C)cc(Oc2nccc(-c3c(-c4ccc(F)cc4)ncn3C3CCNCC3)n2)c1 [SB-284851-BT] |  |  |  |  |  |  |  |  |  | cell count rep 1 (HeLa cells): 26737; cell count rep 2 (HeLa cells): 41520; cell count rep 3 (HeLa cells): 48762; cell death (HeLa cells): No; z-scoreHeLa mean (HeLa cells): 1.19; z-scoreHeLa rep 1 (HeLa cells): 1.00; z-scoreHeLa rep 2 (HeLa cells): 1.26; z-scoreHeLa rep 3 (HeLa cells): 1.31
Cc1ccc(C)c(Oc2nccc(-c3c(-c4ccc(F)cc4)ncn3C3CCNCC3)n2)c1 [SB-284852-BT] |  |  |  |  |  |  |  |  |  | cell count rep 1 (HeLa cells): 26025; cell count rep 2 (HeLa cells): 26957; cell count rep 3 (HeLa cells): 22542; cell death (HeLa cells): No; z-scoreHeLa mean (HeLa cells): 0.10; z-scoreHeLa rep 1 (HeLa cells): -0.71; z-scoreHeLa rep 2 (HeLa cells): 0.29; z-scoreHeLa rep 3 (HeLa cells): 0.70
COc1ccccc1C1=C(Nc2ccc(O)c(Cl)c2)C(=O)NC1=O [SB-381904] | 16.9% | 18.3% | 18.4% | -0.26 | -0.30 | -0.07 | -0.42 | No | No | 
